Measurements published in patent US10000555B2, “Monomethylvaline compounds having phenylalanine side-chain modification at the C-terminus” (Seattle Genetics, Inc., priority 2005, dated 2018).

tested on: U251; experiment: In vitro cytotoxicity of h1F6-MC-val-cit-PAB-MMAZ conjugates on CD70+ cell line U251; format: cell-based; conditions: U251 glioblastoma, approximately 4 drugs per antibody
Procedure: (§1) The cytotoxic activity of MMAZ and antibody-drug conjugates is evaluated on the CD70+ positive cell lines, for example, Caki-1, renal cell carcinoma; L428, Hodgkin's disease; U251, glioblastoma. To evaluate the cytotoxicity of compounds, cells can be seeded at approximately 5-10,000 per well in 150 μl of culture medium, then treated with graded doses of compounds in quadruplicates at the initiation of assay. Cytotoxicity assays are usually carried out for 96 hours after addition of test compounds. Fifty μl of resazurin dye may be added to each well during the last 4 to 6 hours of the incubation to assess viable cells at the end of culture. Dye reduction can be determined by fluorescence spectrometry using the excitation and emission wavelengths of 535 nm and 590 nm, respectively. For analysis, the extent of resazurin reduction by the treated cells can be compared to that of the untreated control cells.
(§2) To evaluate the cytotoxicity of conjugates, cells are seeded at approximately 5-10,000 per well in 150 μl of culture medium and then treated with graded doses of conjugates in quadruplicates at the initiation of assay. Cytotoxicity assays are carried out for 96 hours after addition of test compounds. Fifty μl of the resazurin dye is added to each well during the last 4 to 6 hours of the incubation to assess viable cells at the end of culture. Dye reduction is determined by fluorescence spectrometry using the excitation and emission wavelengths of 535 nm and 590 nm, respectively. For analysis, the extent of resazurin reduction by the treated cells is compared to that of the untreated control cells.

Substance	IC50 (ng/mL) of h1F6-MC-val-cit-PAB-MMAZ conjugates on CD70+ cell lines, U251
Maleimidocaproyl-Val-Cit-PAB-MeVal-Val-Dil-Dap-2-Chloro-Phe-OH [SP3-a]	8 ng/mL
Maleimidocaproyl-Val-Cit-PAB-MeVal-Val-Dil-Dap-3-(3-pyridyl)-L-Ala-OH [SP3-h]	16 ng/mL
Maleimidocaproyl-Val-Cit-PAB-MeVal-Val-Dil-Dap-Glu(OtBu)-OH [SP3-l]	43 ng/mL
Maleimidocaproyl-Val-Cit-PAB-MeVal-Val-Dil-Dap-L-β-homophe-OH [SP3-d]	11 ng/mL
Maleimidocaproyl-Val-Cit-PAB-MeVal-Val-Dil-Dap-Met-OH [SP3-j]	23 ng/mL
Maleimidocaproyl-Val-Cit-PAB-MeVal-Val-Dil-Dap-Tic-OH [SP3-c]	20 ng/mL
Maleimidocaproyl-Val-Cit-PAB-MeVal-Val-Dil-Dap-Trp(Boc)-OH [SP3-k]	7.5 ng/mL
Maleimidocaproyl-Val-Cit-PAB-MeVal-Val-Dil-Dap-p-Amino-Phe-OH [SP3-e]	No effect
Maleimidocaproyl-Val-Cit-PAS-MeVal-Val-Dil-Dap-Me-Phe-OH [SP3-b]	8 ng/mL

tested on: L428; experiment: In vitro cytotoxicity of h1F6-MC-val-cit-PAB-MMAZ conjugates on CD70+ cell line L428; format: cell-based; conditions: L428; @ 100 ng/ml
Procedure: as §1, §2

Substance	Maximum inhibition, L428
Maleimidocaproyl-Val-Cit-PAB-MeVal-Val-Dil-Dap-p-Amino-Phe-OH [SP3-e]	Maximum inhibition = 10% @ 100 ng/ml

same assay, conditions: L428; @ 141 ng/ml

Substance	Maximum inhibition, L428
Maleimidocaproyl-Val-Cit-PAB-MeVal-Val-Dil-Dap-Glu(OtBu)-OH [SP3-l]	Maximum inhibition = 12% @ 141 ng/ml

same assay, conditions: L428; @ 1000 ng/ml

Substance	Maximum inhibition, L428
Maleimidocaproyl-Val-Cit-PAB-MeVal-Val-Dil-Dap-Tic-OH [SP3-c]	Maximum inhibition = 12% @ 1000 ng/ml

same assay, conditions: L428 Hodgkin's disease, CD70+; approximately 4 drugs per antibody

Substance	IC50 (ng/mL) of h1F6-MC-val-cit-PAB-MMAZ conjugates on CD70+ cell lines, L428
Maleimidocaproyl-Val-Cit-PAB-MeVal-Val-Dil-Dap-2-Chloro-Phe-OH [SP3-a]	8 ng/mL
Maleimidocaproyl-Val-Cit-PAB-MeVal-Val-Dil-Dap-3-(3-pyridyl)-L-Ala-OH [SP3-h]	12 ng/mL
Maleimidocaproyl-Val-Cit-PAB-MeVal-Val-Dil-Dap-L-β-homophe-OH [SP3-d]	33 ng/mL
Maleimidocaproyl-Val-Cit-PAB-MeVal-Val-Dil-Dap-Met-OH [SP3-j]	43 ng/mL
Maleimidocaproyl-Val-Cit-PAB-MeVal-Val-Dil-Dap-Trp(Boc)-OH [SP3-k]	11 ng/mL
Maleimidocaproyl-Val-Cit-PAS-MeVal-Val-Dil-Dap-Me-Phe-OH [SP3-b]	6 ng/mL

tested on: Caki-1; experiment: In vitro cytotoxicity of h1F6-MC-val-cit-PAB-MMAZ conjugates on CD70+ cell line Caki-1; format: cell-based; conditions: Caki-1 renal cell carcinoma, approximately 4 drugs per antibody
Procedure: as §1, §2

Substance	IC50 (ng/mL) of h1F6-MC-val-cit-PAB-MMAZ conjugates on CD70+ cell lines, Caki-1
Maleimidocaproyl-Val-Cit-PAB-MeVal-Val-Dil-Dap-2-Chloro-Phe-OH [SP3-a]	4.4 ng/mL
Maleimidocaproyl-Val-Cit-PAB-MeVal-Val-Dil-Dap-3-(3-pyridyl)-L-Ala-OH [SP3-h]	16 ng/mL
Maleimidocaproyl-Val-Cit-PAB-MeVal-Val-Dil-Dap-Glu(OtBu)-OH [SP3-l]	51 ng/mL
Maleimidocaproyl-Val-Cit-PAB-MeVal-Val-Dil-Dap-L-β-homophe-OH [SP3-d]	9 ng/mL
Maleimidocaproyl-Val-Cit-PAB-MeVal-Val-Dil-Dap-Met-OH [SP3-j]	18 ng/mL
Maleimidocaproyl-Val-Cit-PAB-MeVal-Val-Dil-Dap-Tic-OH [SP3-c]	28 ng/mL
Maleimidocaproyl-Val-Cit-PAB-MeVal-Val-Dil-Dap-Trp(Boc)-OH [SP3-k]	6 ng/mL
Maleimidocaproyl-Val-Cit-PAB-MeVal-Val-Dil-Dap-p-Amino-Phe-OH [SP3-e]	No effect
Maleimidocaproyl-Val-Cit-PAS-MeVal-Val-Dil-Dap-Me-Phe-OH [SP3-b]	6 ng/mL
